Reference: article PMC4467398, “Preclinical antitumor activity of ST7612AA1: a new oral thiol-based histone deacetylase (HDAC) inhibitor” (Oncotarget, 2014)

System: DOHH2 and TMD8 DLBCL cells
Test: Gene Set Enrichment Analysis (GSEA) of gene expression profiles, ST7612AA1 300 nM 8 hrs
Type: cell-based, human
[1] = GSEA.C2.CP.REACTOME, up-regulated genes
[2] = GSEA.C3.TFT, in both sheets (down- and up-regulated)
[3] = SignatureDB, down-regulated genes
[4] = SignatureDB, up-regulated genes

## CC(=O)SCCCCC[C@H](NC(=O)[C@H]1CCC(=O)N1)C(=O)Nc1ccccc1 [ST7612AA1]
[1]
  NES REACTOME_AMYLOIDS: 2.248
  NES REACTOME_CELL_CELL_JUNCTION_ORGANIZATION: 1.864
  NES REACTOME_DEPOSITION_OF_NEW_CENPA_CONTAINING_NUCLEOSOMES_AT_THE_CENTROMERE: 1.861
  NES REACTOME_MEIOSIS: 1.9137
  NES REACTOME_MEIOTIC_RECOMBINATION: 2.082
  NES REACTOME_MEIOTIC_SYNAPSIS: 1.86
  NES REACTOME_PACKAGING_OF_TELOMERE_ENDS: 2.135
  NES REACTOME_RNA_POL_I_PROMOTER_OPENING: 2.137
  NES REACTOME_RNA_POL_I_TRANSCRIPTION: 1.892
  NES REACTOME_TELOMERE_MAINTENANCE: 1.906
[2]
  NES TTTNNANAGCYR_UNKNOWN: 1.939
  NES V$CEBP_Q2: 1.715
  NES V$CEBP_Q2_01: 1.7492
  NES V$CREBP1_01: 1.784
  NES V$E4BP4_01: 1.766
  NES V$GATA_Q6: 1.724
  NES V$HLF_01: 1.724
  NES V$MYOGENIN_Q6: 1.714
  NES V$OCT1_B: 1.782
  NES […]_UNKNOWN: 2.04
GSEA.C6, down-regulated genes
  NES CSR_EARLY_UP.V1_UP: -1.379
  NES EIF4E_UP: -1.468
  NES ERB2_UP.V1_DN: -1.443
  NES ESC_J1_UP_LATE.V1_DN: -1.204
  NES GCNP_SHH_UP_EARLY.V1_UP: -1.491
  NES GCNP_SHH_UP_LATE.V1_UP: -1.454
  NES MEK_UP.V1_DN: -1.169
  NES MYC_UP.V1_UP: -2.19
  NES VEGF_A_UP.V1_DN: -1.363
GSEA.C6, up-regulated genes
  NES BCAT.100_UP.V1_UP: 1.912
  NES CAHOY_NEURONAL: 1.833
  NES E2F3_UP.V1_UP: 1.833
  NES ERB2_UP.V1_UP: 2.065
  NES ESC_V6.5_UP_LATE.V1_UP: 1.857
  NES MEK_UP.V1_UP: 2.011
  NES P53_DN.V1_UP: 1.814
  NES RAF_UP.V1_UP: 1.891
  NES STK33_SKM_UP: 1.998
  NES STK33_UP: 1.832
[3]
  NES BLOOD_MODULE-3.7_UNDETERMINED: -2.014
  NES GLUTAMINE_STARVE_DOWN: -2.082
  NES HIF1ALPHA_1.5X_DOWN: -2.057
  NES MYC_CHIP_PET_EXPR_UP: -2.152
  NES MYC_OVEREXPRESSION_1.5X_UP: -2.439
  NES MYC_OVEREXPRESSION_2X_UP: -2.047
  NES MYELOMA_TACI_LOW_PLASMABLAST_GENE: -1.944
  NES NOTCH_T-ALL_UP_PALOMERO: -2.039
  NES PROLIFERATION_NODE1640: -2.024
  NES RAPAMYCIN_BJAB_DOWN: -1.887
[4]
  NES BLOOD_MODULE-1.2_PLATELETS: 0.6607
  NES BLOOD_MODULE-3.2_INFLAMMATION-1: 0.6587
  NES CNS_PNS_NODE1663: 0.6849
  NES HIF1ALPHA_1.5X_UP: 0.6544
  NES HRAS_OVEREXPRESSION_4X_UP: 0.6606
  NES JAK2_DOWNREGULATED_PMBL: 0.6252
  NES KRAS_UP: 0.6774
  NES NORMAL_MESENCHYMAL-1_NODE1643: 0.6887
  NES RETICULOCYTE_LARGE: 0.7092
  NES SERUM_RESPONSE_FB_DOWN: 0.6176
